Assay results as given in US20240325378A1, “PERGOLIDE TREATMENT OF OCULAR CHEMICAL INJURY” (University of Oregon, priority 2023, published 2024).

How the values were obtained:
[1] = tested on: C57BL/6J mice with alkali corneal injury; test: Wiping test (ocular pain behavior) after corneal alkali injury; format: in vivo, mouse; settings: females; for wiping (eye wipes, week minus baseline): week 2 post-injury, heightened vs week 1
Protocol: Seventy (35 male, 35 female) C57BL/6J mice (The Jackson Laboratory, Maine, US) were utilized (FIG. 1A). Mice were kept in a 12 hour light/12 hour dark cycle in groups of 5 with food and water ad libitum. Differences between males and females were assessed.
(§1) Mice were separated into 7 treatment groups with 10 mice per group (5 male, 5 female); high dose pergolide (600 μg/ml), medium dose pergolide (300 μg/ml), low dose pergolide (50 μg/ml), vehicle (solution only), NGF (100 μg/ml), naïve (injury and no treatment), and normal (no injury and no treatment). Preparation of pergolide and vehicle groups were done with Marinosolv® (Marinomed, Hovengasse, Korneuburg, AT) as described in (Siegl 2019 and Zhang 2020). Recombinant mouse NGF (R&D Systems, Minneapolis, MN, US) was prepared by dissolution in 1× phosphate-buffered saline (PBS). Both solutions were stored at 4 C according to the manufacturer's guidelines.
(§2) Mice were confirmed to have normal corneas prior to starting the study. Alkali corneal injury was done on one eye of each mouse for all groups excluding the normal group, in accordance with an established mouse model (Cho J 2019). Alkali-based injury was chosen as it is one of the most common chemical injuries to the eye (Dua 2020). […] A 2 mm diameter filter paper disc was soaked in sodium hydroxide (0.75 M) then applied centrally on the cornea for 10 seconds. The disc was then removed and the ocular surface immediately irrigated with 10 ml of balanced sodium salts. The corneal surface was then lightly rubbed with the smooth side of forceps and irrigated in the same manner. None of the mice had eyelid or conjunctiva involvement of the injury. Erythromycin ointment (Perrigo, Dublin, IE) was then applied to the exterior of both eyes. Mice were placed on a water heating pad, monitored until fully awake, then returned to their cage.
All groups except the no treatment groups received their respective eye drops (10 μl per eye drop) three times daily (5 out of 7 days each week) in the injured eye for 3 weeks following injury. Mice were held for 10 seconds with the eye drop on their eye before being returned to their cage. Mice were sacrificed by cervical dislocation after week 3.
Wiping test was chosen to assess ocular pain behavior and was done once weekly (at the same time), in accordance with previously established protocols (N=10; 5 male, 5 female) (Tashiro et al. 2010, Cho J et al. 2019). Testing was performed in a clear open-top cylinder surrounded by 2 mirrors and a video recorder in front of the cylinder. Mice were habituated to the cylinder prior to the start of the study. The test consisted of applying 10 μl of sodium chloride (2 M) to the surface of the study cornea for 10 seconds, blotting excess away, then recording the mouse in the cylinder for 30 seconds. […] A different pipette tip was used for each mouse. Sudden movements and loud noises were avoided during testing so as to not distract the subjects. An eye wipe was defined as a purposeful wipe by the ipsilateral forelimb across the eye or resulting in eye closure. Cage changes were not done within 3 days of each test, and when cage changes occurred it happened for each group simultaneously. Eye wiping was assessed at baseline (3 days prior to injury) and on post-injury weeks 1, 2, and 3.

[2] = tested on: C57BL/6J mice with alkali corneal injury; test: Corneal haze grading (Roper-Hall classification) after corneal alkali injury; format: in vivo, mouse; settings: 3 weeks post injury; medium dose 300 μg/ml; grade 0-4; naïve group 3.3±0.8
Protocol: as §1
as §2, with “The corneal surface was then lightly rubbed with the smooth side of forceps and irrigated in the same manner. None of the mice had eyelid or conjunctiva involvement of the injury. Erythromycin ointment (Perrigo, Dublin, IE) was then applied to the exterior of both eyes.” left out, “cage. […]” for “cage.”

[3] = tested on: C57BL/6J mice with alkali corneal injury; test: Central corneal nerve density (β-tubulin III stained flat-mounts); format: in vivo, mouse; settings: 3 weeks post injury; low dose 50 μg/ml; normal control 0.43±0.05
Protocol: as §1
Mice were confirmed to have normal corneas prior to starting the study. Alkali corneal injury was done on one eye of each mouse for all groups excluding the normal group, in accordance with an established mouse model (Cho J 2019). […] Mice were placed on a water heating pad, monitored until fully awake, then returned to their cage. […]
(§3) Flat-mounts of mouse corneas were prepared and corneal nerve density was analyzed as previously described (N=6; 3 male, 3 female) (Zhang 2020) (FIG. 3A). […]
(§4) EVOS fluorescence microscope (Life Technologies, Carlsbad, CA, US) was used to create reconstructed whole-mount images and take images at the basal epithelial level in the central area of the injury. […]

[4] = tested on: C57BL/6J mice with alkali corneal injury; test: Limbal nerve density (β-tubulin III stained flat-mounts); format: in vivo, mouse; settings: 3 weeks post injury, normal control 0.37±0.09
Protocol: as §1
as §2, with “cage. […]” for “cage.”
as §3, §4

C57BL/6J mice = test: Histopathology of heart, retina, liver and kidney after topical treatment; format: in vivo, mouse; settings: high, medium, and low dose topical eye drops for 3 weeks
Protocol: (§5) Change in mouse weight was compared from baseline to 3 weeks post-injury, and weight in the pergolide groups was compared to the non-pergolide groups (N=10; 5 male, 5 female). Following euthanasia, the heart and eyes were removed from the high dose pergolide and vehicle groups and histopathology was assessed using previously described protocols.
In brief, after excision, hearts, livers, and kidneys were fixed in formalin for 24 hours then embedded in paraffin and cut in the coronal and transverse planes (N=4; 2 male, 2 female) (Droogmans 2007 & 2009). Eyes were fixed in Davidson's solution for 24 hours then placed in 70% ethanol and processed prior then embedded in paraffin and cut in the sagittal plane (N=4; 2 male, 2 female) (Chidlow 2011). Hematoxylin and eosin were used to stain the slides (Cardiff 2014), then the EVOS fluorescence microscope was used to capture images.

[5] = Change in mouse weight, baseline to 3 weeks post-injury; format: in vivo; settings: medium dose 300 μg/ml group
Protocol: as §5

[6] = medium dose 300 μg/ml eye drops

retina, liver and kidney morphology (C57BL/6J mice)	Molecule	wiping (eye wipes, week minus baseline) ([1]; high dose 600 μg/ml eye drops)	wiping (eye wipes, week minus baseline) [1, 6]	wiping at week 3 compared to week 2 ([1]; high dose 600 μg/ml eye drops)	wiping at week 3 compared to week 2 [1, 6]	corneal haze grade [2]	central corneal nerve density (proportion of area with β-tubulin III staining) [3]	limbal nerve density ([4]; high dose 600 μg/ml)	limbal nerve density ([4]; medium dose 300 μg/ml)	heart histopathology (C57BL/6J mice; compared to the vehicle group)	minor weight loss of one mouse, of initial body weight [5]	wiping (eye wipes, week minus baseline) ([1]; 100 μg/ml eye drops)	wiping at week 3 compared to week 2 ([1]; 100 μg/ml eye drops)	limbal nerve density ([4]; 100 μg/ml)
did not show abnormal morphology	CCCN1C[C@H](CSC)C[C@@H]2c3cccc4[nH]cc(c34)C[C@H]21 [pergolide]	7.0±5.8 wipes	6.2±5.5 wipes	decreased	decreased	2.2±1.1	0.10±0.03	0.35±0.11	0.34±0.08	did not show presence of valvular fibrosis, glycosaminoglycans deposits/myxoid changes, chondroid metaplasia, or other abnormal pathology	about 1%			
	NGF: Recombinant mouse NGF (R&D Systems) dissolved in 1× PBS, 100 μg/ml eye drops; positive control (protein, UniProt P01139 122-241, looked up) Beta-nerve growth factor: SSTHPVFHMGEFSVCDSVSVWVGDKTTATDIKGKEVTVLAEVNINNSVFRQYFFETKCRASNPVESGCRGIDSKHWNSYCTTTHTFVKALTTDEKQAAWRFIRIDTACVCVLSRKATRRG											4.6±5.1 wipes	decreased	0.36±0.08
